Laboratory results published in patent publication US20260297083A1, “SUBSTITUTED ACETYLENE COMPOUND DERIVATIVES AND THEIR PHARMACEUTICAL USE” (AVELOS THERAPEUTICS INC., priority 2023, published 2026).

target: T1, Polθ polymerase domain (amino acids 1792-2590) (Homo sapiens, UniProt O75417); assay: Picogreen assay of Polθ polymerase activity; format: biochemical; conditions: 12-point concentration response, 90 minutes incubation at room temperature, 8 nM Polθ in 2×polymerase mixture, read-out: PolQ IC50
T1 construct: 10×Histidine-SUMO (N, cleaved yes); made in house; host or cells: E. coli
T1 sequence (O75417 1792-2590): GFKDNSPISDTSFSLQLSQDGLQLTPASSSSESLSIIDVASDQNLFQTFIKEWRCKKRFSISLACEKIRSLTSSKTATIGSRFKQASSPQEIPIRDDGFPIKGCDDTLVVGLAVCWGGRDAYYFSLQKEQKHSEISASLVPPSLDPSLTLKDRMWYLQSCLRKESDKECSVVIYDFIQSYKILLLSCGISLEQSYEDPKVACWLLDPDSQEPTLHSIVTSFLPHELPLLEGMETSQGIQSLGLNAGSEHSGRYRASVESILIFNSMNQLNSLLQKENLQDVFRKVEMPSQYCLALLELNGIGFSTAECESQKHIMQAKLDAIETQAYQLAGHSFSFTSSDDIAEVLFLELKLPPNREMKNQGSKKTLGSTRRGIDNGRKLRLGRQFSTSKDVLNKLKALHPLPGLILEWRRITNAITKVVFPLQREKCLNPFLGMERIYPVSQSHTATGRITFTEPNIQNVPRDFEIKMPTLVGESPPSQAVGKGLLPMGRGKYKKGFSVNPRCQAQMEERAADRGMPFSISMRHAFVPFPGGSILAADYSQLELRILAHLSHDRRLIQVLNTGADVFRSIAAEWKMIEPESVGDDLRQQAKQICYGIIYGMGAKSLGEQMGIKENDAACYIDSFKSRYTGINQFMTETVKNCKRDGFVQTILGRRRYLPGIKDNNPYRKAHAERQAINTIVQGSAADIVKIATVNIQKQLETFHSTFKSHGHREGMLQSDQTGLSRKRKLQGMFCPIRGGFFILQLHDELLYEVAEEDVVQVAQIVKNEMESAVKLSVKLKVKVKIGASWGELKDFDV
From the text: The DNA sequence of the polQ gene (Genebank ID #NM 199420.4) was chemically synthesized. The DNA sequence encoding the polymerase domain (amino acids 1792-2590) was subcloned into an E. coli expression plasmid, resulting in the fusion of 10×Histidine-SUMO tag at the N terminus of the polymerase domain.
The protein was expressed in E. coli. and purified using a 2-step IMAC (immobilized metal chelate affinity chromatography) procedure. Briefly stated, the overexpressed E. coli lysate was subjected to Ni-NTA purification, and an N-terminal tag was digested by a SUMO protease. Then, the excised fragment of 10×Histidine-SUMO tag was removed using Ni-NTA beads. The resulting protein was used for the Picogreen assay, as described below.
The methods of DNA complex preparation were slightly modified from the protocol previously reported (Zatreanu et al., 2021, Nature Communications, 12:3636). Briefly stated, polθ substrate was prepared by mixing Oligo1 (5′-GCG GCT GTC ATA AG-3′) and Oligo2 (5′-GCTACATTGACAATGGCATCAAATCTCAGATTGCGTCTTATGACAGCCGCG-3′) in an annealing buffer (20 mM Tris-Cl, pH 7.5, 50 mM NaCl) to the final concentration of 22 uM and 20 uM, respectively. The Polθ product was prepared by mixing Oligo3 (5′-CGCGGCTGTCATAAGACGCAATCTGAGATTTGATGCCATTGTCAATGTAGC-3′) and Oligo2 (5′-GCTACATTGACAATGGCATCAAATCTCAGATTGCGTCTTATGACAGCCGCG-3′) to the final concentration of 20 uM. The polθ product was used for the top signal control in the Picogreen assay. Both substrate and product were heated to 95° C. […] and cooled slowly to room temperature.
To evaluate the ability of test compounds to inhibit the activity of polθ in vitro, a Picogreen assay was performed to measure polθ IC50 (nM).
The reactions were performed at room temperature in an assay buffer (25 mM Tris-HCl, pH 7.5, 12.5 mM NaCl, 0.5 mM MgCl2, 5% (v/v) glycerol, 0.01% (v/v) Triton X-100, 0.01% (w/v) Bovine serum albumin, 1 mM DTT). Thirty microliters of 2×polymerase mixture (8 nM Polθ enzyme in an assay buffer) were distributed to 96 well plates, test compounds were prepared by dilution in 100% DMSO to obtain the correct dose range for a 12-point concentration response and 1 μl was dispensed into each well, and then 30 microliters of 2×substrate mix (100 nM DNA and 40 uM dNTPs in an assay buffer) was added. After 90 minutes of incubation, the reaction was stopped and DNA was stained by adding 40 microliters of Picogreen solution (1:80 dilution of Picogreen, Invitrogen, Cat #P7581, 25 mM Tris-HCl, pH 7.5, 10 mM EDTA, pH 7.5).
The fluorescence intensity was measured at excitation/emission=485 nm/520 nm using an Ensight plate reader (Perkin Elmer). The data was analyzed by GraphPad Prism software (Version 8.4.3) to calculate IC50.

Row | IC50 | SMILES
1 | 1 to 50 nM | Cc1cc(C(F)(F)F)cc(N2[C@H](C(=O)N(CC#Cc3cncc(N4CCOCC4)n3)c3ccc(F)c(C)c3)CCS2(=O)=O)n1 [compound 42]
2 | 1 to 50 nM | Cc1cc(C(F)(F)F)cc(N2[C@H](C(=O)N(CC#Cc3cnc(N4CCOCC4)c(N)n3)c3ccc(F)c(C)c3)CCS2(=O)=O)n1 [compound 44]
3 | 1 to 50 nM | Cc1cc(C(F)(F)F)cc(N2[C@H](C(=O)N(CC#Cc3cnc(N4CCOCC4)c(C)n3)c3ccc(F)c(C)c3)CCS2(=O)=O)n1 [compound 45]
4 | 1 to 50 nM | Cc1cc(C(F)(F)F)cc(N2[C@H](C(=O)N(CC#Cc3cnc(N4CCOCC4)c(C(F)(F)F)n3)c3ccc(F)c(C)c3)CCS2(=O)=O)n1 [compound 46]
5 | 1 to 50 nM | Cc1cc(C(F)(F)F)cc(N2[C@H](C(=O)N(CC#Cc3cnc(N4C5CCC4COC5)cn3)c3ccc(F)c(C)c3)CCS2(=O)=O)n1 [compound 49]
6 | 1 to 50 nM | CCN1CCN(c2cnc(C#CCN(C(=O)[C@@H]3CCS(=O)(=O)N3c3cc(C(F)(F)F)cc(C)n3)c3cc(C)ccc3F)cn2)CC1 [compound 51]
7 | 1 to 50 nM | Cc1cc(C(F)(F)F)cc(N2[C@H](C(=O)N(CC#Cc3cnc(N4C[C@H](C)N[C@@H](C)C4)cn3)c3ccc(F)c(C)c3)CCS2(=O)=O)n1 [compound 52]
8 | 1 to 50 nM | Cc1cc(C(F)(F)F)cc(N2[C@H](C(=O)N(CC#Cc3cnc(N4C[C@H](C)N(C(C)C)[C@@H](C)C4)cn3)c3ccc(F)c(C)c3)CCS2(=O)=O)n1 [compound 53]
9 | 1 to 50 nM | Cc1cc(C(F)(F)F)cc(N2[C@H](C(=O)N(CC#Cc3cnc(-n4ccnn4)cn3)c3ccc(F)c(C)c3)CCS2(=O)=O)n1 [compound 57]
10 | > 101 nM | Cc1cc(C(F)(F)F)cc(N2[C@H](C(=O)N(CC#Cc3cnc(C#N)cn3)c3ccc(F)c(C)c3)CCS2(=O)=O)n1 [compound 59]
11 | > 101 nM | Cc1cc(C(F)(F)F)cc(N2[C@H](C(=O)N(CC#Cc3cnc(S(N)(=O)=O)cn3)c3ccc(F)c(C)c3)CCS2(=O)=O)n1 [compound 65]
12 | 51 to 100 nM | Cc1cc(C(F)(F)F)cc(N2[C@H](C(=O)N(CC#Cc3cncc(S(N)(=O)=O)n3)c3ccc(F)c(C)c3)CCS2(=O)=O)n1 [compound 66]
13 | 1 to 50 nM | Cc1cc(C(F)(F)F)cc(N2[C@H](C(=O)N(CC#Cc3cnc(C(=O)N(C)C)cn3)c3ccc(F)c(C)c3)CCS2(=O)=O)n1 [compound 68]
14 | 1 to 50 nM | Cc1cc(C(F)(F)F)cc(N2[C@H](C(=O)N(CC#Cc3cncc(C(=O)N4CC5CCC(C4)N5)n3)c3ccc(F)c(C)c3)CCS2(=O)=O)n1 [compound 73]
15 | > 101 nM | Cc1cc(C(F)(F)F)cc(N2[C@H](C(=O)N(CC#Cc3cncc(C(=O)N4C[C@H](C)N[C@@H](C)C4)n3)c3ccc(F)c(C)c3)CCS2(=O)=O)n1 [compound 74]
16 | 1 to 50 nM | Cc1cc(C(F)(F)F)cc(N2[C@H](C(=O)N(CC#Cc3cnc(C(N)=O)nc3)c3ccc(F)c(C)c3)CCS2(=O)=O)n1 [compound 78]
17 | 1 to 50 nM | Cc1cc(C(F)(F)F)cc(N2[C@H](C(=O)N(CC#Cc3ncc(N4CCOCC4)cn3)c3ccc(F)c(C)c3)CCS2(=O)=O)n1 [compound 79]

The remaining lines, values behind:

Row | SMILES | IC50
18 | Cc1cc(C(F)(F)F)cc(N2[C@H](C(=O)N(CC#Cc3ncc(N4CCOCC4)nc3N)c3ccc(F)c(C)c3)CCS2(=O)=O)n1 [compound 43] | 1 to 50 nM
19 | Cc1cc(C(F)(F)F)cc(N2[C@H](C(=O)N(CC#Cc3cnc(N4C[C@@H](C)O[C@@H](C)C4)cn3)c3ccc(F)c(C)c3)CCS2(=O)=O)n1 [compound 47] | 1 to 50 nM
20 | Cc1cc(C(F)(F)F)cc(N2[C@H](C(=O)N(CC#Cc3cnc(N4CC5CCC(C4)O5)cn3)c3ccc(F)c(C)c3)CCS2(=O)=O)n1 [compound 48] | 1 to 50 nM
21 | CCN1CCN(c2cnc(C#CCN(C(=O)[C@@H]3CCS(=O)(=O)N3c3cc(C(F)(F)F)cc(C)n3)c3ccc(F)c(C)c3)cn2)CC1 [compound 50] | 1 to 50 nM
22 | Cc1cc(C(F)(F)F)cc(N2[C@H](C(=O)N(CC#Cc3cnc(N4[C@H](C)CN(C(C)C)C[C@H]4C)cn3)c3ccc(F)c(C)c3)CCS2(=O)=O)n1 [compound 55] | 1 to 50 nM
23 | Cc1cc(C(F)(F)F)cc(N2[C@H](C(=O)N(CC#Cc3cnc(-c4c[nH]nn4)cn3)c3ccc(F)c(C)c3)CCS2(=O)=O)n1 [compound 56] | 1 to 50 nM
24 | Cc1cc(C(F)(F)F)cc(N2[C@H](C(=O)N(CC#Cc3cnc(-c4ncon4)cn3)c3ccc(F)c(C)c3)CCS2(=O)=O)n1 [compound 58] | > 101 nM
25 | Cc1cc(C(F)(F)F)cc(N2[C@H](C(=O)N(CC#Cc3cnc(C(=O)O)cn3)c3ccc(F)c(C)c3)CCS2(=O)=O)n1 [compound 60] | 1 to 50 nM
26 | Cc1cc(C(F)(F)F)cc(N2[C@H](C(=O)N(CC#Cc3cnc(C(N)=O)cn3)c3ccc(F)c(C)c3)CCS2(=O)=O)n1 [compound 61] | > 101 nM
27 | Cc1cc(C(F)(F)F)cc(N2[C@H](C(=O)N(CC#Cc3cnc(C(N)=O)c(C)n3)c3ccc(F)c(C)c3)CCS2(=O)=O)n1 [compound 62] | 1 to 50 nM
28 | Cc1cc(C(F)(F)F)cc(N2[C@H](C(=O)N(CC#Cc3cncc(C(N)=O)n3)c3ccc(F)c(C)c3)CCS2(=O)=O)n1 [compound 63] | 1 to 50 nM
29 | Cc1cc(C(F)(F)F)cc(N2[C@H](C(=O)N(CC#Cc3nccnc3C(N)=O)c3ccc(F)c(C)c3)CCS2(=O)=O)n1 [compound 64] | 1 to 50 nM
30 | CNC(=O)c1cnc(C#CCN(C(=O)[C@@H]2CCS(=O)(=O)N2c2cc(C(F)(F)F)cc(C)n2)c2ccc(F)c(C)c2)cn1 [compound 67] | 1 to 50 nM
31 | Cc1cc(C(F)(F)F)cc(N2[C@H](C(=O)N(CC#Cc3cnc(C(=O)N4CCOCC4)cn3)c3ccc(F)c(C)c3)CCS2(=O)=O)n1 [compound 69] | 1 to 50 nM
32 | Cc1cc(C(F)(F)F)cc(N2[C@H](C(=O)N(CC#Cc3cncc(C(=O)N4CCOCC4)n3)c3ccc(F)c(C)c3)CCS2(=O)=O)n1 [compound 70] | 1 to 50 nM
33 | Cc1cc(C(F)(F)F)cc(N2[C@H](C(=O)N(CC#Cc3cncc(C(=O)N4CC5CCC(C4)O5)n3)c3ccc(F)c(C)c3)CCS2(=O)=O)n1 [compound 71] | 1 to 50 nM
34 | Cc1cc(C(F)(F)F)cc(N2[C@H](C(=O)N(CC#Cc3cncc(C(=O)N4CCNCC4)n3)c3ccc(F)c(C)c3)CCS2(=O)=O)n1 [compound 72] | 1 to 50 nM
35 | Cc1cc(C(F)(F)F)cc(N2[C@H](C(=O)N(CC#Cc3cc(N4CCOCC4)ncn3)c3ccc(F)c(C)c3)CCS2(=O)=O)n1 [compound 75] | 1 to 50 nM
36 | Cc1cc(C(F)(F)F)cc(N2[C@H](C(=O)N(CC#Cc3cc(N4CCOCC4)nc(C(F)(F)F)n3)c3ccc(F)c(C)c3)CCS2(=O)=O)n1 [compound 76] | 51 to 100 nM
37 | Cc1cc(C(F)(F)F)cc(N2[C@H](C(=O)N(CC#Cc3cnc(N4CCOCC4)nc3)c3ccc(F)c(C)c3)CCS2(=O)=O)n1 [compound 77] | 1 to 50 nM
